From ChEMBL document CHEMBL3885881, “DrugMatrix”

Species on record: Rattus norvegicus
Experiment: DrugMatrix - Regimen: Daily Repeat
Assay type: toxicity, organism-based, Sprague-Dawley
Parameters: regimen Daily Repeat, gender Male, age 6-8 weeks
Conditions: in vivo, po, route oral GAVAGE, vehicle 100 % WATER; for ABSOLUTE BASOPHIL / ABSOLUTE EOSINOPHIL / ABSOLUTE LYMPHOCYTE / ABSOLUTE MONOCYTE / ABSOLUTE SEGMENTED NEUTROPHIL / BASOPHIL / EOSINOPHIL / ERYTHROCYTE COUNT / HEMATOCRIT / HEMOGLOBIN / LEUKOCYTE COUNT / LYMPHOCYTE / MEAN CORPUSCULAR HEMOGLOBIN / MEAN CORPUSCULAR HEMOGLOBIN CONCENTRATION / MEAN CORPUSCULAR VOLUME / MONOCYTE / NEUTROPHIL / NUCLEATED RED BLOOD CELLS / PLATELET COUNT: tissue Blood; for ALANINE AMINOTRANSFERASE / ALBUMIN / ALKALINE PHOSPHATASE / ASPARTATE AMINOTRANSFERASE / BLOOD UREA NITROGEN / CARBON DIOXIDE / CHLORIDE / CHOLESTEROL / CREATINE PHOSPHOKINASE / CREATININE / GLUCOSE / LACTATE DEHYDROGENASE / LIPASE / PHOSPHORUS / POTASSIUM / SODIUM / TOTAL BILIRUBIN / TOTAL PROTEIN / URIC ACID: tissue Plasma
[1] = 0 mg/kg, 72 h, dose level Control, time 3 day
[2] = 0 mg/kg, 120 h, dose level Control, time 5 day
[3] = 150 mg/kg, 72 h, dose level Low, time 3 day
[4] = 150 mg/kg, 120 h, dose level Low, time 5 day

SMILES: Cc1c(N(C)CS(=O)(=O)[O-])c(=O)n(-c2ccccc2)n1C.[Na+] [DIPYRONE SODIUM]
- ABSOLUTE BASOPHIL [1]: 0 CELLS/uL
- ABSOLUTE EOSINOPHIL [1]: 25 CELLS/uL
- ABSOLUTE LYMPHOCYTE [1]: 14357 CELLS/uL
- ABSOLUTE MONOCYTE [1]: 456.33 CELLS/uL
- ABSOLUTE SEGMENTED NEUTROPHIL [1]: 1461.67 CELLS/uL
- BASOPHIL [1]: 0%
- EOSINOPHIL [1]: 0.17%
- ERYTHROCYTE COUNT [1]: 5.85 x10E6/uL
- HEMATOCRIT [1]: 37.62%
- HEMOGLOBIN [1]: 13.87 G/DL
- LEUKOCYTE COUNT [1]: 16.3 x10E3/uL
- LYMPHOCYTE [1]: 88%
- MEAN CORPUSCULAR HEMOGLOBIN [1]: 23.68 pg
- MEAN CORPUSCULAR HEMOGLOBIN CONCENTRATION [1]: 36.88 G/DL
- MEAN CORPUSCULAR VOLUME [1]: 64.23 fL
- MONOCYTE [1]: 2.83%
- NEUTROPHIL [1]: 9%
- NUCLEATED RED BLOOD CELLS [1]: 0 /100WBC
- PLATELET COUNT [1]: 1125.33 x10E3/uL
- ALANINE AMINOTRANSFERASE [1]: 49.67 u/L
- ALBUMIN [1]: 4.23 G/DL
- ALKALINE PHOSPHATASE [1]: 400.83 u/L
- ASPARTATE AMINOTRANSFERASE [1]: 89.17 u/L
- BLOOD UREA NITROGEN [1]: 16 mg/dL
- CARBON DIOXIDE [1]: 31.83 mmol/L
- CHLORIDE [1]: 99 MEQ/L
- CHOLESTEROL [1]: 76 mg/dL
- CREATINE PHOSPHOKINASE [1]: 777.67 u/L
- CREATININE [1]: 0.22 mg/dL
- GLUCOSE [1]: 158.33 mg/dL
- LACTATE DEHYDROGENASE [1]: 186.17 u/L
- LIPASE [1]: 9.33 u/L
- PHOSPHORUS [1]: 12.95 mg/dL
- POTASSIUM [1]: 7.01 MEQ/L
- SODIUM [1]: 141.53 MEQ/L
- TOTAL BILIRUBIN [1]: 0.18 mg/dL
- TOTAL PROTEIN [1]: 6.08 G/DL
- URIC ACID [1]: 1.77 mg/dL
- ABSOLUTE BASOPHIL [2]: 0 CELLS/uL
- ABSOLUTE EOSINOPHIL [2]: 0 CELLS/uL
- ABSOLUTE LYMPHOCYTE [2]: 8994.5 CELLS/uL
- ABSOLUTE MONOCYTE [2]: 122.33 CELLS/uL
- ABSOLUTE SEGMENTED NEUTROPHIL [2]: 666.5 CELLS/uL
- BASOPHIL [2]: 0%
- EOSINOPHIL [2]: 0%
- ERYTHROCYTE COUNT [2]: 5.74 x10E6/uL
- HEMATOCRIT [2]: 35.17%
- HEMOGLOBIN [2]: 13.28 G/DL
- LEUKOCYTE COUNT [2]: 9.78 x10E3/uL
- LYMPHOCYTE [2]: 92.33%
- MEAN CORPUSCULAR HEMOGLOBIN [2]: 23.15 pg
- MEAN CORPUSCULAR HEMOGLOBIN CONCENTRATION [2]: 37.8 G/DL
- MEAN CORPUSCULAR VOLUME [2]: 61.27 fL
- MONOCYTE [2]: 1.33%
- NEUTROPHIL [2]: 6.33%
- NUCLEATED RED BLOOD CELLS [2]: 0 /100WBC
- PLATELET COUNT [2]: 1117 x10E3/uL
- ALANINE AMINOTRANSFERASE [2]: 47.83 u/L
- ALBUMIN [2]: 4.33 G/DL
- ALKALINE PHOSPHATASE [2]: 414.5 u/L
- ASPARTATE AMINOTRANSFERASE [2]: 77.5 u/L
- BLOOD UREA NITROGEN [2]: 17 mg/dL
- CARBON DIOXIDE [2]: 32.33 mmol/L
- CHLORIDE [2]: 99.33 MEQ/L
- CHOLESTEROL [2]: 76.33 mg/dL
- CREATINE PHOSPHOKINASE [2]: 363.67 u/L
- CREATININE [2]: 0.25 mg/dL
- GLUCOSE [2]: 173.5 mg/dL
- LACTATE DEHYDROGENASE [2]: 129.33 u/L
- LIPASE [2]: 9.17 u/L
- PHOSPHORUS [2]: 11.52 mg/dL
- POTASSIUM [2]: 5.73 MEQ/L
- SODIUM [2]: 143.85 MEQ/L
- TOTAL BILIRUBIN [2]: 0.2 mg/dL
- TOTAL PROTEIN [2]: 6.43 G/DL
- URIC ACID [2]: 0.97 mg/dL
- ABSOLUTE BASOPHIL [3]: 0 CELLS/uL
- ABSOLUTE EOSINOPHIL [3]: 55.67 CELLS/uL
- ABSOLUTE LYMPHOCYTE [3]: 16817.67 CELLS/uL
- ABSOLUTE MONOCYTE [3]: 567 CELLS/uL
- ABSOLUTE SEGMENTED NEUTROPHIL [3]: 1026.33 CELLS/uL
- BASOPHIL [3]: 0%
- EOSINOPHIL [3]: 0.33%
- ERYTHROCYTE COUNT [3]: 5.75 x10E6/uL
- HEMATOCRIT [3]: 36.5%
- HEMOGLOBIN [3]: 13.47 G/DL
- LEUKOCYTE COUNT [3]: 18.47 x10E3/uL
- LYMPHOCYTE [3]: 91%
- MEAN CORPUSCULAR HEMOGLOBIN [3]: 23.47 pg
- MEAN CORPUSCULAR HEMOGLOBIN CONCENTRATION [3]: 36.9 G/DL
- MEAN CORPUSCULAR VOLUME [3]: 63.5 fL
- MONOCYTE [3]: 3%
- NEUTROPHIL [3]: 5.67%
- NUCLEATED RED BLOOD CELLS [3]: 0 /100WBC
- PLATELET COUNT [3]: 1215.67 x10E3/uL
- ALANINE AMINOTRANSFERASE [3]: 44.67 u/L
- ALBUMIN [3]: 4.4 G/DL
- ALKALINE PHOSPHATASE [3]: 361 u/L
- ASPARTATE AMINOTRANSFERASE [3]: 86 u/L
- BLOOD UREA NITROGEN [3]: 16 mg/dL
- CARBON DIOXIDE [3]: 33 mmol/L
- CHLORIDE [3]: 100.33 MEQ/L
- CHOLESTEROL [3]: 87 mg/dL
- CREATINE PHOSPHOKINASE [3]: 700 u/L
- CREATININE [3]: 0.19 mg/dL
- GLUCOSE [3]: 142.33 mg/dL
- LACTATE DEHYDROGENASE [3]: 212 u/L
- LIPASE [3]: 9.33 u/L
- PHOSPHORUS [3]: 13.33 mg/dL
- POTASSIUM [3]: 6.6 MEQ/L
- SODIUM [3]: 143.13 MEQ/L
- TOTAL BILIRUBIN [3]: 0.2 mg/dL
- TOTAL PROTEIN [3]: 6.2 G/DL
- URIC ACID [3]: 1.67 mg/dL
- ABSOLUTE BASOPHIL [4]: 0 CELLS/uL
- ABSOLUTE EOSINOPHIL [4]: 0 CELLS/uL
- ABSOLUTE LYMPHOCYTE [4]: 8863.67 CELLS/uL
- ABSOLUTE MONOCYTE [4]: 61.67 CELLS/uL
- ABSOLUTE SEGMENTED NEUTROPHIL [4]: 541.33 CELLS/uL
- BASOPHIL [4]: 0%
- EOSINOPHIL [4]: 0%
- ERYTHROCYTE COUNT [4]: 5.85 x10E6/uL
- HEMATOCRIT [4]: 36.3%
- HEMOGLOBIN [4]: 13.67 G/DL
- LEUKOCYTE COUNT [4]: 9.47 x10E3/uL
- LYMPHOCYTE [4]: 93.33%
- MEAN CORPUSCULAR HEMOGLOBIN [4]: 23.37 pg
- MEAN CORPUSCULAR HEMOGLOBIN CONCENTRATION [4]: 37.63 G/DL
- MEAN CORPUSCULAR VOLUME [4]: 62 fL
- MONOCYTE [4]: 0.67%
- NEUTROPHIL [4]: 6%
- NUCLEATED RED BLOOD CELLS [4]: 0 /100WBC
- PLATELET COUNT [4]: 1342 x10E3/uL
- ALANINE AMINOTRANSFERASE [4]: 52.67 u/L
- ALBUMIN [4]: 4.23 G/DL
- ALKALINE PHOSPHATASE [4]: 379 u/L
- ASPARTATE AMINOTRANSFERASE [4]: 72.33 u/L
- BLOOD UREA NITROGEN [4]: 16.33 mg/dL
- CARBON DIOXIDE [4]: 34.67 mmol/L
- CHLORIDE [4]: 100.67 MEQ/L
- CHOLESTEROL [4]: 67 mg/dL
- CREATINE PHOSPHOKINASE [4]: 175.33 u/L
- CREATININE [4]: 0.2 mg/dL
- GLUCOSE [4]: 135 mg/dL
- LACTATE DEHYDROGENASE [4]: 123 u/L
- LIPASE [4]: 8.67 u/L
- PHOSPHORUS [4]: 12.43 mg/dL
- POTASSIUM [4]: 6.37 MEQ/L
- SODIUM [4]: 145.67 MEQ/L
- TOTAL BILIRUBIN [4]: 0.17 mg/dL
- TOTAL PROTEIN [4]: 6.17 G/DL
- URIC ACID [4]: 1.3 mg/dL
